System: S. aureus
Experiment: MIC assay according to CLSI criteria, Example 2, S. aureus strains
Assay type: cell-based, Staphylococcus aureus
Settings: Staphylococcus aureus
Description: Chosen for its relevance regarding bacterial skin infections, the methicillin-resistant S. aureus (MRSA) 01 strain was used as the primary test microorganism. This strain is a community-acquired MRSA clinical isolate of USA 300 type, from a skin abscess.
Two-hundred-four other MRSA and methicillin-sensitive S. aureus strains, and 4 Streptococcus pyogenes strains, were also included in the study. These covered fusidic acid- and mupirocin-resistant strains, these two types of resistance being of clinical relevance.
Strains were conserved in Luria Bertani (LB) Broth (S. aureus) or Brain Heart Infusion (BHI) (S. pyogenes) supplemented with glycerol 15% (v/v) at −80° C., and reactivated by isolation on LB (S. aureus) or BHI (S. pyogenes) agar plates. Strains were cultivated in Mueller Hinton (MH) Broth-cation adjusted (S. aureus) or BHI (S. pyogenes). All strains were cultivated aerobically (microaerobically for S. pyogenes strains) at 37° C.
Bacterial cultures were stopped in their exponential growth phase and plates were inoculated with the approximate concentration of 5×10^5 cells per well. Plates were incubated at 37° C. for 18 hours (S. aureus) or 24 hours (S. pyogenes). Optical density at a wavelength of 600 nm was measured at the end of the incubation time.

Measured: MIC

C=C[C@]1(C)C[C@@H](OC(=O)CS[C@@H]2C[C@H]3CC[C@@H](C2)N3C)[C@]2(C)[C@H](C)CC[C@]3(CCC(=O)[C@H]32)[C@@H](C)[C@@H]1O [Retapamulin, retapamulin]
1 µg/mL: MRSA, strain MRSA 100
0.125 µg/mL: MRSA, strain MRSA 21
< 0.01 µg/mL: MRSA, strain MRSA 56 | MRSA, strain MRSA 69 | MRSA, strain MRSA 71 | MRSA, strain MRSA 79
0.06 µg/mL: MRSA, strain MRSA 01 | MRSA, strain MRSA 02 | MRSA, strain MRSA 04 | MRSA, strain MRSA 07 | MRSA, strain MRSA 09 | MRSA, strain MRSA 10 | MRSA, strain MRSA 11 | MRSA, strain MRSA 13 | MRSA, strain MRSA 15 | MRSA, strain MRSA 16 | MRSA, strain MRSA 18 | MRSA, strain MRSA 20 | MRSA, strain MRSA 22 | MRSA, strain MRSA 23 | MRSA, strain MRSA 24 | MRSA, strain MRSA 25 | MRSA, strain MRSA 26 | MRSA, strain MRSA 27 | MRSA, strain MRSA 29 | MRSA, strain MRSA 32 | MRSA, strain MRSA 33 | MRSA, strain MRSA 34 | MRSA, strain MRSA 36 | MRSA, strain MRSA 37 | MRSA, strain MRSA 38 | MRSA, strain MRSA 39 | MRSA, strain MRSA 42 | MRSA, strain MRSA 43 | MRSA, strain MRSA 90 | MRSA, strain MRSA 91 | MRSA, strain MRSA 92
0.02 µg/mL: MRSA, strain MRSA 27b | MRSA, strain MRSA 41 | MRSA, strain MRSA 44 | MRSA, strain MRSA 45 | MRSA, strain MRSA 46 | MRSA, strain MRSA 47 | MRSA, strain MRSA 48 | MRSA, strain MRSA 49 | MRSA, strain MRSA 50 | MRSA, strain MRSA 52 | MRSA, strain MRSA 55 | MRSA, strain MRSA 57 | MRSA, strain MRSA 58 | MRSA, strain MRSA 59 | MRSA, strain MRSA 60 | MRSA, strain MRSA 61 | MRSA, strain MRSA 62 | MRSA, strain MRSA 63 | MRSA, strain MRSA 64 | MRSA, strain MRSA 65 | MRSA, strain MRSA 66 | MRSA, strain MRSA 67 | MRSA, strain MRSA 68 | MRSA, strain MRSA 70 | MRSA, strain MRSA 80 | MRSA, strain MRSA 87 | MRSA, strain MRSA 89 | MRSA, strain MRSA 93
16 µg/mL: MRSA, strain MRSA 31
0.03 µg/mL: ATCC29213, strain ATCC 29213 | MRSA, strain MRSA 03 | MRSA, strain MRSA 05 | MRSA, strain MRSA 06 | MRSA, strain MRSA 08 | MRSA, strain MRSA 12 | MRSA, strain MRSA 14 | MRSA, strain MRSA 17 | MRSA, strain MRSA 19 | MRSA, strain MRSA 28 | MRSA, strain MRSA 30 | MRSA, strain MRSA 35 | MRSA, strain MRSA 40 | MRSA, strain MRSA 51 | MRSA, strain MRSA 53 | MRSA, strain MRSA 54 | MRSA, strain MRSA 72 | MRSA, strain MRSA 73 | MRSA, strain MRSA 74 | MRSA, strain MRSA 75 | MRSA, strain MRSA 76 | MRSA, strain MRSA 77 | MRSA, strain MRSA 78 | MRSA, strain MRSA 81 | MRSA, strain MRSA 82 | MRSA, strain MRSA 83 | MRSA, strain MRSA 84 | MRSA, strain MRSA 85 | MRSA, strain MRSA 86 | MRSA, strain MRSA 88 | MRSA, strain MRSA 94 | MRSA, strain MRSA 95 | MRSA, strain MRSA 96 | MRSA, strain MRSA 97 | MRSA, strain MRSA 98 | MRSA, strain MRSA 99 | MRSA, strain MRSA 101 | MRSA, strain MRSA 102 | MRSA, strain MRSA 103

From patent US12036312B2, “Non-aqueous topical compositions comprising a halogenated salicylanilide” (priority 2016, dated 2024)
